How the values were obtained:
[1] = target: T1, Fatty-acid amide hydrolase 1 (Rattus norvegicus, UniProt P97612); test: Inhibition of rat recombinant FAAH expressed in Escherichia coli
T1 sequence (P97612 whole entry): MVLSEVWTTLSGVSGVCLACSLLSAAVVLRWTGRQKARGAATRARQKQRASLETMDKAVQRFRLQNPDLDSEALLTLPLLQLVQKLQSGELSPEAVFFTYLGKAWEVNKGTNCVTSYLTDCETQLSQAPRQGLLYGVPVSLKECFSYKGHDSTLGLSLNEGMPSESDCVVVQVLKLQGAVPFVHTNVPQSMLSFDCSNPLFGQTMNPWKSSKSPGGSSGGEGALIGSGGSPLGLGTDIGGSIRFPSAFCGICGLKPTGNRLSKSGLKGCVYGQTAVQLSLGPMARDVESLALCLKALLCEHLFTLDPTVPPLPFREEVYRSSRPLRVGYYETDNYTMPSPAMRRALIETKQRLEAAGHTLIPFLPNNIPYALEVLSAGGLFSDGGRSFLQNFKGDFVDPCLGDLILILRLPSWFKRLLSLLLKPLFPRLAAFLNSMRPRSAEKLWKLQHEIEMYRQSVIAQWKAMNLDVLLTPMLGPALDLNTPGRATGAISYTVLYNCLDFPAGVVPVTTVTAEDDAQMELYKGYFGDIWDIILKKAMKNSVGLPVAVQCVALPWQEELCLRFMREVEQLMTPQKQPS

[2] = Selectivity for rat recombinant FAAH over TGH
[3] = target: T2, Neutral cholesterol ester hydrolase 1 (Homo sapiens, UniProt Q6PIU2); test: Inhibition of KIAA1363
T2 sequence (Q6PIU2 whole entry): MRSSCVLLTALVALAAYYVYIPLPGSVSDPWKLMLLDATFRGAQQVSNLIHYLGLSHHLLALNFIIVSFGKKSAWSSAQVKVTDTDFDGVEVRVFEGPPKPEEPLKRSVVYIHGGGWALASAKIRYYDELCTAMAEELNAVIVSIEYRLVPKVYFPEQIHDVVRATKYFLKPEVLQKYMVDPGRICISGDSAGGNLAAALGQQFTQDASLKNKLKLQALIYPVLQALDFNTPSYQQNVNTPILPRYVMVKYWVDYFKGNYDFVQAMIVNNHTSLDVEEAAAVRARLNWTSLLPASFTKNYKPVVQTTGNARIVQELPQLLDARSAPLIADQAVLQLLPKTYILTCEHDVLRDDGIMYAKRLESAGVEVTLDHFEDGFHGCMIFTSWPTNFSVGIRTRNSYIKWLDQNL

[4] = Selectivity for rat recombinant FAAH over KIAA1363
[5] = target: T3, Liver carboxylesterase 1 (Homo sapiens, UniProt P23141)
T3 sequence (P23141 whole entry): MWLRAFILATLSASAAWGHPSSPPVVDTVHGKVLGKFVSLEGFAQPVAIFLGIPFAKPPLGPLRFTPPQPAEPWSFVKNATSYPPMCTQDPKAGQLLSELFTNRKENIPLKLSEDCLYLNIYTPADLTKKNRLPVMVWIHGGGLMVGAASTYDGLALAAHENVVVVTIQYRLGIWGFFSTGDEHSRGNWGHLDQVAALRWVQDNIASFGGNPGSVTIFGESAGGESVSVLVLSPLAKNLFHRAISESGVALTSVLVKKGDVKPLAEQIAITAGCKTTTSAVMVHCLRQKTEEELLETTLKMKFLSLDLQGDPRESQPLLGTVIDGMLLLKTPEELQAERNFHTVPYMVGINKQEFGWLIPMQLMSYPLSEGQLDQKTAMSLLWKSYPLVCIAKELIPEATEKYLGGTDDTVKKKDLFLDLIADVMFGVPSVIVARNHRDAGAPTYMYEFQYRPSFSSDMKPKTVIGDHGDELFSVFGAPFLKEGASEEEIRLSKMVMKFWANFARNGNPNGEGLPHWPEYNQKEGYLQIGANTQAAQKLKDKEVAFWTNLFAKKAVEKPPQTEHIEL

O=C(O)c1cccc(-c2cnc(CCCc3ccc(-c4ccccc4)cc3)o2)n1
Ki [1]: 10000 nM

O=C(O)c1cnc(C(=O)CCc2ccc(-c3ccccc3)cc2)o1
IC50 [1]: 20 nM
Ki [1]: 10 nM
Ratio IC50 [2]: 850
IC50 [3]: > 100000 nM
Ratio IC50 [4]: > 5000
IC50 [5]: 17000 nM

COC(=O)c1cccc(-c2cnc(C(O)CCc3ccc(-c4ccccc4)cc3)o2)n1 (centres undefined)
Ki [1]: 9000 nM

COC(=O)c1cnc(C(=O)CCc2ccc(Oc3ccccc3)cc2)o1
Ki [1]: 1.7 nM

COC(=O)c1ccc(-c2cnc(C(O)CCc3ccc(-c4ccccc4)cc3)o2)nc1 (centres undefined)
Ki [1]: 1100 nM

O=C(CCc1ccc(-c2ccccc2)cc1)c1ncc(-c2ccccn2)o1
IC50 [3]: > 100000 nM
IC50 [5]: 1200 nM

COC(=O)c1cc(-c2cnc(C(=O)CCc3ccc(-c4ccccc4)cc3)o2)ccn1
Ki [1]: 1.5 nM

O=C(O)c1cccc(-c2cnc(C(O)CCc3ccc(-c4ccccc4)cc3)o2)n1 (centres undefined)
Ki [1]: 1100 nM

O=C(O)c1cnc(C(=O)CCc2ccc(COc3ccccc3)cc2)o1
IC50 [1]: 50 nM
Ki [1]: 22 nM
Ratio IC50 [2]: 740
IC50 [3]: > 100000 nM
Ratio IC50 [4]: > 2000
IC50 [5]: 37000 nM

O=C(O)c1cccc(-c2cnc(C(=O)CCc3ccc(COc4ccccc4)cc3)o2)n1
IC50 [1]: 40 nM
Ratio IC50 [2]: 650
IC50 [3]: > 100000 nM
Ratio IC50 [4]: > 2500
IC50 [5]: 26000 nM

N#Cc1cnc(C(=O)CCc2ccc(-c3ccccc3)cc2)o1
IC50 [1]: 1 nM
Ratio IC50 [2]: 26
IC50 [3]: 64000 nM
Ratio IC50 [4]: 64000
Selectivity ratio [4]: > 1000
IC50 [5]: 26 nM

O=C(CCc1ccc(Oc2ccccc2)cc1)c1ncc(I)o1
Ki [1]: 10 nM

O=C(O)c1cnc(C(=O)CCc2ccc(Oc3ccccc3)cc2)o1
IC50 [1]: 80 nM
Ki [1]: 41 nM
Ratio IC50 [2]: 30
IC50 [3]: > 100000 nM
Ratio IC50 [4]: > 1250
IC50 [5]: 2400 nM

CSc1cnc(C(=O)CCc2ccc(-c3ccccc3)cc2)o1
Ki [1]: 3 nM

COC(=O)c1ccc(-c2cnc(CCCc3ccc(-c4ccccc4)cc3)o2)nc1
Ki [1]: 50000 nM

COC(=O)c1cccc(-c2cnc(CCCc3ccc(-c4ccccc4)cc3)o2)n1
Ki [1]: 7000 nM

CN(C)C(=O)c1cnc(C(=O)CCc2ccc(-c3ccccc3)cc2)o1
Ki [1]: 3 nM

O=C(CCc1ccc(COc2ccccc2)cc1)c1ncc(-c2cccc(-c3nnn[nH]3)n2)o1
IC50 [1]: 180 nM
Ratio IC50 [2]: 500
IC50 [3]: > 100000 nM
Ratio IC50 [4]: > 550
IC50 [5]: 90000 nM

NC(=O)c1cccc(-c2cnc(CCCc3ccc(-c4ccccc4)cc3)o2)n1
Ki [1]: 4000 nM

O=C(O)c1cccc(-c2cnc(C(=O)CCCCCCc3ccccc3)o2)n1
IC50 [1]: 100 nM
Ratio IC50 [2]: > 1000
Ratio IC50 [4]: > 1000

O=C(O)c1cccc(-c2cnc(C(=O)CCc3ccc(-c4ccccc4)cc3)o2)n1
IC50 [1]: 6 nM
Ratio IC50 [2]: > 17000
IC50 [3]: > 100000 nM
Ratio IC50 [4]: > 17000
IC50 [5]: > 100000 nM

COC(=O)c1cnc(C(=O)CCc2ccc(-c3ccccc3)cc2)o1
Ki [1]: 1.5 nM

NC(=O)c1ccc(-c2cnc(CCCc3ccc(-c4ccccc4)cc3)o2)nc1
Ki [1]: 30000 nM

O=C(CCc1ccc(-c2ccc(CN3CCCCC3)cc2)cc1)c1ncco1
Ki [1]: 25 nM

COC(=O)c1cccc(-c2cnc(C(=O)CCc3ccc(OC4CCNCC4)cc3)o2)n1
Ki [1]: 4500 nM

N#Cc1cccc(-c2cnc(C(=O)CCc3ccc(-c4ccccc4)cc3)o2)n1
Ki [1]: 2.9 nM

NC(=O)c1cnc(C(=O)CCc2ccc(-c3ccccc3)cc2)o1
Ki [1]: 3.5 nM

O=C(O)c1ccc(-c2cnc(C(O)CCc3ccc(-c4ccccc4)cc3)o2)nc1 (centres undefined)
Ki [1]: 10000 nM

CN(C)C(=O)c1cnc(C(=O)CCc2ccc(Oc3ccccc3)cc2)o1
Ki [1]: 5.4 nM

CNC(=O)c1cnc(C(=O)CCc2ccc(Oc3ccccc3)cc2)o1
Ki [1]: 11 nM

CN1CCN(Cc2ccc(-c3ccc(CCC(=O)c4ncc(-c5cccc(C(=O)O)n5)o4)cc3)cc2)CC1
Ki [1]: 1200 nM

CN(C)C(=O)c1cnc(C(=O)CCc2ccc(COc3ccccc3)cc2)o1
Ki [1]: 6.7 nM

O=C(CCc1ccc(-c2ccccc2)cc1)c1ncc(I)o1
Ki [1]: 4 nM

O=C(CCc1ccc(-c2ccccc2)cc1)c1ncc(-c2cccc(-c3nnn[nH]3)n2)o1
IC50 [1]: 100 nM
Ki [1]: 25 nM
Ratio IC50 [2]: 70
IC50 [3]: > 100000 nM
Ratio IC50 [4]: > 1000
IC50 [5]: 7000 nM

O=C(O)c1cccc(-c2cnc(C(=O)CCc3ccc(OC4CCNCC4)cc3)o2)n1
Ki [1]: 11000 nM

O=C(CCCCCCc1ccccc1)c1ncco1
IC50 [1]: 2500 nM

O=C(CCCCCCc1ccccc1)c1ncc(-c2cccc(-c3nnn[nH]3)n2)o1
IC50 [1]: 500 nM
Ratio IC50 [2]: > 200
IC50 [3]: > 100000 nM
Ratio IC50 [4]: > 200
IC50 [5]: > 100000 nM

COC(=O)c1cnc(C(=O)CCc2ccc(COc3ccccc3)cc2)o1
Ki [1]: 1.6 nM

NC(=O)c1cnc(C(=O)CCc2ccc(COc3ccccc3)cc2)o1
Ki [1]: 4.5 nM

O=C(O)c1cnc(C(=O)CCCCCCc2ccccc2)o1
IC50 [1]: 2 nM
Ratio IC50 [2]: 1000
Ratio IC50 [4]: > 50000
IC50 [5]: 2000 nM

O=C(CCc1ccc(COc2ccccc2)cc1)c1ncc(I)o1
Ki [1]: 4 nM

NC(=O)c1cnc(C(=O)CCc2ccc(Oc3ccccc3)cc2)o1
Ki [1]: 6.6 nM

CS(=O)(=O)c1cnc(C(=O)CCc2ccc(-c3ccccc3)cc2)o1
Ki [1]: 1.2 nM

CNC(=O)c1cnc(C(=O)CCc2ccc(COc3ccccc3)cc2)o1
Ki [1]: 3.6 nM

O=C(O)c1cccc(-c2cnc(C(=O)CCc3ccc(Oc4ccccc4)cc3)o2)n1
IC50 [1]: 20 nM
Ratio IC50 [2]: > 5000
IC50 [3]: > 100000 nM
Ratio IC50 [4]: > 5000
IC50 [5]: > 100000 nM

O=C(CCc1ccc(-c2ccccc2)cc1)c1ncc(C(F)(F)F)o1
Ki [1]: 0.7 nM

N#Cc1cccc(-c2cnc(C(=O)CCc3ccc(COc4ccccc4)cc3)o2)n1
Ki [1]: 0.56 nM

NC(=O)c1cccc(-c2cnc(C(O)CCc3ccc(-c4ccccc4)cc3)o2)n1 (centres undefined)
Ki [1]: 20000 nM

O=C(CCc1ccc(-c2ccccc2)cc1)c1ncc(C(=O)C(F)(F)F)o1
Ki [1]: 8 nM

COC(=O)c1cccc(-c2cnc(C(=O)CCc3ccc(OC4CCN(C(=O)OC(C)(C)C)CC4)cc3)o2)n1
Ki [1]: 32 nM

CC(C)(C)OC(=O)N1CCC(Oc2ccc(CCC(=O)c3ncc(-c4cccc(C(=O)O)n4)o3)cc2)CC1
Ki [1]: 120 nM

NC(=O)c1ccc(-c2cnc(C(=O)CCc3ccc(-c4ccccc4)cc3)o2)nc1
Ki [1]: 1.3 nM

O=C(CCc1ccc(Oc2ccccc2)cc1)c1ncc(-c2ccccn2)o1
IC50 [1]: 2 nM
IC50 [3]: > 100000 nM
IC50 [5]: 200 nM

O=C(O)c1cccc(-c2cnc(C(=O)CCc3ccc(-c4ccc(CN5CCCC5)cc4)cc3)o2)n1
Ki [1]: 130 nM

NC(=O)c1ccc(-c2cnc(C(O)CCc3ccc(-c4ccccc4)cc3)o2)nc1 (centres undefined)
Ki [1]: > 1000 nM

O=C(O)c1ccc(-c2cnc(CCCc3ccc(-c4ccccc4)cc3)o2)nc1
Ki [1]: 20000 nM

O=C(CCc1ccc(COc2ccccc2)cc1)c1ncc(-c2ccccn2)o1
IC50 [1]: 2 nM
Ratio IC50 [2]: 1000
IC50 [3]: > 100000 nM
Ratio IC50 [4]: > 50000
IC50 [5]: 2000 nM
